The test deals with experimentally-infarcted rats. Briefly: Infarct scar area and transmurality after coronary occlusion and reperfusion in rats. In kind it is in vivo, Sprague Dawley rats. To be noted: for Transmurality, Treated: infarct scar area divided by infarct area; for Transmurality, Treated / Infarct Scar Area, Treated: mean ± SEM, 7 rats; for Infarct Scar Area, Treated: left ventricle. On the procedure:
The experimental protocol for induction of cardiac infarction by coronary occlusion and reperfusion in rats was carried out as described by Oh et al. (10). Briefly, each rat was anaesthetized with 7% w/v chloral hydrate (0.4 g/kg, i.p.). Each anaesthetised animal was intubated and ventilated with a rodent ventilator. Under a dissecting microscope, a left thoracotomy was performed in the fourth intercostal space, and the pericardium open. The left coronary artery was encircled with a curved needle and a silk suture. The left coronary artery was ligated for 45 minutes, followed by reperfusion. In sham-operated animals, the left coronary artery was not ligated. The chest was closed in layers and the pneumothorax evacuated.
Following the surgery, each animal was placed in a cage. The animals had access to water and rat chow ad libitum. The animals were randomly divided into the control group and treatment group. Each group consisted of 7 animals. The treatment group was orally administered 381 nmoles/kg/day of des-Asp-angiotensin I (dissolved in 1 ml water) for 14 days. The control group was similarly administered an equivalent volume of water. The experiment was repeated with the following doses of des-Asp-angiotensin I: 762, 1524, and […] nmoles/kg/day.
On the fourteenth day following surgery, animals were anaesthetised as before. Rats were ventilated as before and the thorax was opened. A polyethylene catheter (PE 200) was introduced into the left ventricle (via the left atrial appendage) and another into the descending aorta retrogradely. The heart was arrested with 2 ml injection of saturated KCl solution into the right atrium. After aortic perfusion with heparinized saline (10,000 units/L) for 3 minutes to wash out the blood, the myocardium was perfused retrogradely from the aorta with 4% phosphate-buffered paraformaldehyde at a constant pressure of 60 mm Hg for 20 minutes. The right atrium and pulmonary artery were opened to decompress the right ventricle during fixation. The left ventricle intracavity pressure was maintained at 10 mm Hg by use of the cathether introduced via the left atrial appendage.
After hardening, the heart was excised and postfixed in 4% paraformaldehyde for 24 hours. Following postfixing, the atria and adhensions were carefully dissected away and the right and left ventricles were separated, the interventricular septum being included with the left ventricle. The left ventricle was processed for paraffin embedment. Transverse serial sections of 40 μm thick were cut from the apex of the ventricle to its base. Every section at 1 mm intervals was mounted and stained with Milligan's trichrome. The infracted tissue (infarct scar) was stained blue. Two sections, taken at 5 and 6 mm, respectively, from the apex of each ventricle were used for morphometric determination of the infarct scar area and transmurality. The morphometry system consisted of a BX40 light microscope (Olympus, Japan) fitted with a KYF55B colour video camera (JVC, Japan) and a Pentium 166 MHz/MKX microcomputer (Datamini, Singapore) installed with an image Pro Plus 3.0 System (Media Cybernetics, USA) for Windows 95™. The infarct scar area, infarct area (which measured the scar and the surrounding surviving ventricular tissue) were determined in mm2. Transmurality is equal to the infarct scar area divided by infarct area.
The results of the study are summarized in Table 2 Data were expressed as mean±SEM. Significant differences were determined by one way ANOVA and post hoc Newman Kleuf test. The accepted level of significance was p<0.05. […] The effect was dose dependent and significant anti-infarction action was brought about by an oral dose of 1524 nmoles/kg/day.

The mark [1] stands for this setting: 381 nmole/kg/day orally for 14 days.
The mark [2] stands for this setting: 762 nmole/kg/day orally for 14 days.
Where [3] appears, read: 1524 nmole/kg/day orally for 14 days, * p < 0.05 vs Control.
Where [4] appears, read: 3096 nmole/kg/day orally for 14 days, * p < 0.05 vs Control.

Data on one substance can be found in patent US6589938B2, “Use of angiotensin I derivatives as an agent for the treatment and prevention of infarction-related cardiac injuries and disorders” (National University of Singapore, priority 2001, dated 2003).

With “Des-Aspartate angiotensin I [des-Asp-angiotensin I]”, the “Transmurality, Treated” value was 32.93 ± 1.94% under setting [1], 33.70 ± 3.40% under setting [2], 24.67 ± 2.37* % under setting [3] and 31.26 ± 1.53* % under setting [4]. In addition, the “Infarct Scar Area, Treated” value under setting [1] is given as 5.85 ± 0.25 mm^2; the “Infarct Scar Area, Treated” value under setting [2] was found to be 5.60 ± 0.30 mm^2; the “Infarct Scar Area, Treated” value under setting [3] is on record as 5.11 ± 0.54* mm^2; the “Infarct Scar Area, Treated” value under setting [4] is given as 5.86 ± 0.20* mm^2. Further, under “experimentally-induced myocardial infarcted rats, oral, 14 days”, the “attenuating the infarct size area and transmurality” value was “effective agent”. Also, the “oral dose that brought about significant anti-infarction action” value (oral, 14 days, p<0.05, one way ANOVA) was determined as 1524 nmol/kg/day.
